Results as given in patent publication US20080210905A1, “ORGANIC-ELECTROLUMINESCENCE-MATERIAL-CONTAINING SOLUTION, METHOD FOR SYNTHESIZING ORGANIC ELECTROLUMINESCENCE MATERIAL, COMPOUND SYNTHESIZED BY THE METHOD, METHOD FOR FORMING THIN FILM OF ORGANIC ELECTROLUMINESCENCE MATERIAL, THIN FILM OF ORGANIC ELECTROLUMINESCENCE MATERIAL AND ORGANIC …” (Idemitsu Kosan Co., Ltd., priority 2006, published 2008).

Key:
[1] = Solubility evaluation: compound stirred in toluene, visual check for insoluble matter; format: physicochemical; conditions: for Presence of insoluble matter: 0.01 g of anthracene compound and 1 g of toluene, stirred, visual check; for solubility in toluene: concluded from visual check of 0.01 g compound in 1 g toluene
Source text: In order to evaluate a relationship between the soluble portion B and the solubility, how the solubility was changed depending on the bonding number U of the solubility portion B was examined.
As the compound, an anthracene compound as represented by the following formula was used.
A solubility portion B of the compound was structured as represented by the formula (3), and the bonding number of the solubility portion is represented by (a).
With the above structure, compounds respectively having bonding numbers (a) of 1, 2, 3 and 6 were synthesized.
Then, 0.01 g of the anthracene compound and 1 g of toluene were put into a glass bottle to be stirred.
Whether or not any insoluble matter was present in the solution was observed by a visual check.
In order to evaluate a relationship between unit(s) structuring the soluble portion B and the solubility, how the solubility was changed depending on the structure of the solubility portion B was examined.
Compounds used in the examination were AN-1, AN-3, AN-4 and an-1.
For evaluation of the solubility, as in the solubility evaluation 1, 0.01 g of the anthracene compound and 1 g of toluene were put into a glass bottle to be stirred. Then, whether or not any insoluble matter was present in the solution was observed by a visual check.

[2] = Solubility of compound (a) in toluene, evaluated in advance; format: physicochemical

| Presence of insoluble matter [1] | solubility in toluene [1] | solubility in toluene [2] | Compound |
| --- | --- | --- | --- |
| no insoluble matter present | ≥ 1 wt % | – | c1ccc(-c2ccc(-c3cccc(-c4cccc(-c5cccc(-c6cccc(-c7cccc(-c8c9ccccc9c(-c9ccc%10ccccc%10c9)c9ccccc89)c7)c6)c5)c4)c3)cc2)cc1 [AN-4] |
| no insoluble matter present | ≥ 1 wt % | – | c1ccc(-c2cccc(-c3ccc(-c4ccc(-c5cccc(-c6cccc(-c7cccc(-c8c9ccccc9c(-c9ccc%10ccccc%10c9)c9ccccc89)c7)c6)c5)cc4)cc3)c2)cc1 [AN-3] |
| – | – | 10 wt % | c1ccc(-c2ccccc2-c2ccc3c(-c4ccccc4)c4ccccc4c(-c4ccccc4)c3c2)cc1 [compound (a)] |
